According to patent US20190071490A1, “Preventing Post-Ictal Headaches” (Beth Israel Deaconess Medical Center, Inc., priority 2017, published 2019):

System: skin blood flow after saphenous nerve stimulation (CGRP release)
Assay: Skin vasodilatation induced by stimulation of rat saphenous nerve
Assay type: in vivo
Settings: 400 nmol/kg i.v., 3-5 minutes before stimulation, vs control
Method: To test antagonist activity of anti-CGRP antibodies, effect of the antibodies on skin vasodilatation by stimulation of rat saphenous nerve was tested using a rat model described previously. Escott et al., Br. J. Pharmacol. 110:772-776, 1993. In this rat model, electrical stimulation of saphenous nerve induces release of CGRP from nerve endings, resulting in an increase in skin blood flow. Blood flow in the foot skin of male Sprague Dawley rats (170-300 g, from Charles River Hollister) was measured after saphenous nerve stimulation. Rats were maintained under anesthesia with 2% isoflurane. Bretylium tosylate (30 mg/kg, administered i.v.) was given at the beginning of the experiment to minimize vasoconstriction due to the concomitant stimulation of sympathetic fibers of the saphenous nerve. […]
For experiments shown in FIGS. 2A and 2B, antibody 4901 (25 mg/kg), antibody 7D11 (25 mg/kg), or vehicle control (PBS with 0.01% Tween 20) was administered intraperitoneally (IP) 72 hours before the electrical pulse stimulation. […] Skin blood flow, measured as blood cell flux, was monitored with a laser Doppler flow meter. […]
For experiments shown in FIGS. 4A and 4B, saphenous nerve was exposed surgically before antibody administration. […] Skin blood flow, measured as blood cell flux, was monitored with a laser Doppler flow meter. […]

CGRP 8-37: Positive control compound CGRP 8-37 (vasodilatation antagonist)
blood flow increase stimulated by electronic pulses on saphenous nerve (AUC of blood cell flux): inhibited
